The record followed here is ChEMBL document CHEMBL3044589, “Effects of propylene oxide doses on Cyperus and Belonolaimus control and nutrient absorption in tomato” (2007).

Assay [1] has as its system Solanum lycopersicum. Kind of assay: Increase in Solanum lycopersicum (tomato) foliar potassium concentration at 190 to 950 l/ha applied 12 days prior to transplantation measured after 4 weeks (reference value: 2.38%). It is filed as functional.
The subject of assay [2] is Solanum lycopersicum. Kind of assay: Increase in Solanum lycopersicum (tomato) plant yield at 190 to 950 l/ha applied 12 days prior to transplantation measured after 12 to 14 weeks. It is filed as functional, organism-based.
Assay [3] deals with Solanum lycopersicum. Kind of assay: Increase in Solanum lycopersicum (tomato) plant yield at […] applied 12 days prior to transplantation measured after 12 to 14 weeks relative to untreated-control. It is filed as functional.
Assay [4] has as its system Cyperus. The experiment in a line: Herbicidal activity against Cyperus at 190 to 950 l/ha applied 12 days prior to tomato transplantation measured after 4 to 14 weeks relative to control. The class given is functional, organism-based.
A further assay concerns Belonolaimus. The experiment in a line: Nematocidal activity against Belonolaimus at 190 to 950 l/ha applied 12 days prior to tomato transplantation measured after 14 weeks. The class given is functional, organism-based.
The subject of assay [5] is Cyperus. The experiment in a line: Herbicidal activity against Cyperus at 190 l/ha applied 12 days prior to tomato transplantation measured after 4 weeks relative to control. It is filed as functional.
The test system of assay [6] is Solanum lycopersicum. Kind of assay: Increase in Solanum lycopersicum (tomato) plant vigor at 190 to 950 l/ha applied 12 days prior to transplantation measured after 10 weeks. It is filed as functional, organism-based.
In assay [7] the test system is Cyperus. Kind of assay: Herbicidal activity against Cyperus at 775 l/ha applied 12 days prior to tomato transplantation measured after 8 weeks relative to control. The class given is functional.
Assay [8] relates to Solanum lycopersicum. Kind of assay: Increase in Solanum lycopersicum (tomato) foliar phosphorus concentration at 190 to 950 l/ha applied 12 days prior to transplantation measured after 4 weeks (reference value: 0.31%). The class given is functional.
The subject of assay [9] is Cyperus. The experiment in a line: Herbicidal activity against Cyperus at 850 l/ha applied 12 days prior to tomato transplantation measured after 14 weeks relative to control. It is filed as functional.
Assay [10] has as its system Solanum lycopersicum. Kind of assay: Increase in Solanum lycopersicum (tomato) plant yield at 760 l/ha applied 12 days prior to transplantation measured after 12 to 14 weeks relative to untreated-control. The class given is functional.

Calls of active or inactive are those of the source. The calls are words filed in the database; no cut-off is given here.

Take `CC1CO1` (stereo unspecified) [PROPYLENE OXIDE]: the Activity with Solanum lycopersicum [1] was found to be 3.25%; with Cyperus [5], 80%; in the assay with Cyperus [7] it was 80%; with Solanum lycopersicum [8], 0.51%; in the assay with Cyperus [9] it was 80%. Moreover, the result in the assay on Solanum lycopersicum [2], in the assay on Cyperus [4], with Belonolaimus and with Solanum lycopersicum [6] was Active. The entries for the “fold change (FC)” value in the assay on Solanum lycopersicum [3] and in the assay on Solanum lycopersicum [10] were 3.5 and 4.1, respectively.
